According to ChEMBL document CHEMBL1130134, “Synthesis of carboranes containing an azulene framework and in vitro evaluation as boron carriers” (J Med Chem, 1997):

Assays:
B16 [1] = assay: Boron incorporation into B-16 melanoma cells(1000000 cells) after 24 hours incubation (10.8 ug of B/mL).; assay type: functional, Mus musculus
B16 [2] = assay: Compound was tested for the in vitro growth inhibition of B-16 melanoma cells after incubation for 3 days (cytotoxicity), the dose that failed to inhibit cell growth by more than 50% was determined; assay type: functional, cell-based; conditions: Mus musculus, B16, 72 h

CC(C)(c1ccc(O)cc1)c1ccc(O)cc1 [BISPHENOL A]
B incorporation (B16 [1]): 0.31 µg
IC50 (B16 [2]): 8.6 mM
